Assay results published in ChEMBL document CHEMBL1201862, “PubChem BioAssay data set” (2004).
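Where inhibition never reached the appropriate level, the endpoint shown equals the highest concentration tested. Otherwise, values were interpolated linearly from a five-concentration, 48-hour dose response in 96-well plates. GI50 = concentration required for 50% inhibition of growth.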 The source made the active and inactive calls. Cut-off read from the data, not from the text of the source: active = GI50 up to about 1.1 µM and inactive = higher.

Assays:
Test in all cases: growth of human tumour cells (NCI), 48 h
PC-3 = test system: PC-3
NCI-H522 = test system: NCI-H522
A549 = test system: A549
MOLT-4 = test system: MOLT-4
RXF 393 = test system: RXF 393
HCT-116 = test system: HCT-116
T47D = test system: T47D
HL-60 = test system: HL-60
SK-MEL-5 = test system: SK-MEL-5
A498 = test system: A498
Hs-578T = test system: Hs-578T
HT-29 = test system: HT-29
K562 = test system: K562
HCT-15 = test system: HCT-15
BT-549 = test system: BT-549
RPMI-8226 = test system: RPMI-8226
SK-MEL-28 = test system: SK-MEL-28
NCI-H23 = test system: NCI-H23
OVCAR-3 = test system: OVCAR-3
MDA-N = test system: MDA-N
SNB-19 = test system: SNB-19
MCF7 = test system: MCF7
MDA-MB-435 = test system: MDA-MB-435
EKVX = test system: EKVX
HOP-92 = test system: HOP-92
ACHN = test system: ACHN
LOX IMVI = test system: LOX IMVI
CAKI-1 = test system: CAKI-1
DU-145 = test system: DU-145
IGROV-1 = test system: IGROV-1
SF-539 = test system: SF-539
SK-OV-3 = test system: SK-OV-3
SN12C = test system: SN12C
CCRF-CEM = test system: CCRF-CEM
OVCAR-5 = test system: OVCAR-5
SF-295 = test system: SF-295
M14 = test system: M14
SF-268 = test system: SF-268
SR = test system: SR
Malme-3M = test system: Malme-3M
HOP-62 = test system: HOP-62
COLO 205 = test system: COLO 205
NCI/ADR-RES = test system: NCI/ADR-RES
SW-620 = test system: SW-620
SK-MEL-2 = test system: SK-MEL-2
UO-31 = test system: UO-31
UACC-62 = test system: UACC-62
OVCAR-4 = test system: OVCAR-4
786-0 = test system: 786-0
OVCAR-8 = test system: OVCAR-8
SNB-75 = test system: SNB-75
KM12 = test system: KM12
TK-10 = test system: TK-10
NCI-H226 = test system: NCI-H226
UACC-257 = test system: UACC-257
NCI-H460 = test system: NCI-H460
HCC 2998 = test system: HCC 2998

COc1cc(NC(C)=O)ccc1C(=O)NN1C(=O)/C(=C/c2ccco2)N=C1c1ccccc1
GI50 (PC-3): > 50 µM (inactive)
GI50 (NCI-H522): 24.5 µM (inactive)
GI50 (A549): > 50 µM (inactive)
GI50 (MOLT-4): 14.5 µM (inactive)
GI50 (RXF 393): > 50 µM (inactive)
GI50 (HCT-116): 30.8 µM (inactive)
GI50 (T47D): > 50 µM (inactive)
GI50 (HL-60): 13.6 µM (inactive)
GI50 (SK-MEL-5): 16 µM (inactive)
GI50 (A498): 15.4 µM (inactive)
GI50 (Hs-578T): > 50 µM (inactive)
GI50 (HT-29): 36.9 µM (inactive)
GI50 (K562): 20.5 µM (inactive)
GI50 (HCT-15): > 50 µM
GI50 (BT-549): > 50 µM (inactive)
GI50 (RPMI-8226): 13.5 µM (inactive)
GI50 (SK-MEL-28): 28.6 µM (inactive)
GI50 (NCI-H23): > 50 µM (inactive)
GI50 (OVCAR-3): > 50 µM (inactive)
GI50 (MDA-N): 14.9 µM (inactive)
GI50 (SNB-19): > 50 µM (inactive)
GI50 (MCF7): 34.3 µM (inactive)
GI50 (MDA-MB-435): 25 µM (inactive)
GI50 (EKVX): > 50 µM (inactive)
GI50 (HOP-92): > 50 µM (inactive)
GI50 (ACHN): > 50 µM (inactive)
GI50 (LOX IMVI): 34.2 µM (inactive)
GI50 (CAKI-1): > 50 µM (inactive)
GI50 (DU-145): > 50 µM (inactive)
GI50 (IGROV-1): > 50 µM (inactive)
GI50 (SF-539): 33.4 µM (inactive)
GI50 (SK-OV-3): > 50 µM (inactive)
GI50 (SN12C): > 50 µM (inactive)
GI50 (CCRF-CEM): 12.5 µM (inactive)
GI50 (OVCAR-5): > 50 µM (inactive)
GI50 (SF-295): > 50 µM (inactive)
GI50 (M14): 38.2 µM (inactive)
GI50 (SF-268): > 50 µM (inactive)
GI50 (SR): 22.5 µM (inactive)
GI50 (Malme-3M): > 50 µM (inactive)
GI50 (HOP-62): 21.4 µM (inactive)
GI50 (COLO 205): > 50 µM (inactive)
GI50 (NCI/ADR-RES): > 50 µM (inactive)
GI50 (SW-620): 27.7 µM (inactive)
GI50 (SK-MEL-2): 14.3 µM (inactive)
GI50 (UO-31): > 50 µM (inactive)
GI50 (UACC-62): 25.4 µM (inactive)
GI50 (OVCAR-4): 49.5 µM (inactive)
GI50 (786-0): 24.3 µM (inactive)
GI50 (OVCAR-8): > 50 µM (inactive)
GI50 (SNB-75): > 50 µM (inactive)

NC1C/C(=N\O)c2c(Cl)sc(Cl)c21 (centres undefined)
GI50 (PC-3): 20.8 µM (inactive)
GI50 (A549): 29.3 µM (inactive)
GI50 (MOLT-4): 9.73 µM (inactive)
GI50 (HCT-116): 3.96 µM (inactive)
GI50 (T47D): 18.7 µM (inactive)
GI50 (HL-60): 21.4 µM (inactive)
GI50 (A498): 20.2 µM (inactive)
GI50 (Hs-578T): 59.3 µM (inactive)
GI50 (HT-29): 23.1 µM (inactive)
GI50 (K562): 43.2 µM (inactive)
GI50 (HCT-15): 15.6 µM
GI50 (BT-549): 18.5 µM (inactive)
GI50 (RPMI-8226): 10.2 µM (inactive)
GI50 (SK-MEL-28): 19.3 µM (inactive)
GI50 (NCI-H23): 17.1 µM (inactive)
GI50 (OVCAR-3): 17.3 µM (inactive)
GI50 (MDA-N): 18 µM (inactive)
GI50 (SNB-19): 31.3 µM (inactive)
GI50 (KM12): 12 µM (inactive)
GI50 (MCF7): 11 µM (inactive)
GI50 (MDA-MB-435): 15.6 µM (inactive)
GI50 (EKVX): 18.5 µM (inactive)
GI50 (HOP-92): 22.9 µM (inactive)
GI50 (ACHN): 21.8 µM (inactive)
GI50 (LOX IMVI): 3.11 µM (inactive)
GI50 (CAKI-1): 18 µM (inactive)
GI50 (DU-145): 15.1 µM (inactive)
GI50 (IGROV-1): 17 µM (inactive)
GI50 (SF-539): 8.95 µM (inactive)
GI50 (SK-OV-3): > 100 µM (inactive)
GI50 (SN12C): 19.1 µM (inactive)
GI50 (CCRF-CEM): 3.17 µM (inactive)
GI50 (OVCAR-5): 21.7 µM (inactive)
GI50 (SF-295): 28.1 µM (inactive)
GI50 (M14): 16.8 µM (inactive)
GI50 (SF-268): 29.4 µM (inactive)
GI50 (SR): 20.1 µM (inactive)
GI50 (Malme-3M): 19.5 µM (inactive)
GI50 (HOP-62): 21.5 µM (inactive)
GI50 (TK-10): 17.5 µM (inactive)
GI50 (COLO 205): 25.4 µM (inactive)
GI50 (NCI/ADR-RES): 25.6 µM (inactive)
GI50 (SW-620): 17.9 µM (inactive)
GI50 (SK-MEL-2): 19.7 µM (inactive)
GI50 (UO-31): 17.4 µM (inactive)
GI50 (OVCAR-4): 17.3 µM (inactive)
GI50 (786-0): 18.1 µM (inactive)
GI50 (NCI-H226): 21.9 µM (inactive)
GI50 (OVCAR-8): 15.2 µM (inactive)
GI50 (SNB-75): 25.2 µM (inactive)
GI50 (UACC-257): 17.1 µM (inactive)
GI50 (NCI-H460): 20.4 µM (inactive)
GI50 (HCC 2998): 92.7 µM (inactive)
